The source of these data is PubChem BioAssay (NCI).

SMILES strings stand for the structures.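 Tested at 5 concentrations; 48 h exposure; 96-well plates; endpoints linearly interpolated, else capped at highest concentration. TGI: total growth inhibition.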 Some results are limits rather than exact numbers.

Test systems include KM12 colon; A549 NSCLC; SNB-75 CNS; U251 CNS; MDA-N; SW-620 colon; OVCAR-4 ovarian; OVCAR-8 ovarian; MDA-MB-435; SK-MEL-2 melanoma.
What all share (experiment): NCI tumour cell line growth inhibition, 48 h

With `CC(C)NC(=O)OCCN=c1c2ccccc2ccc2ccccc12`, the TGI in the assay on KM12 colon, with A549 NSCLC, in the assay on SNB-75 CNS, with U251 CNS, with MDA-N and in the assay on SW-620 colon was more than 100 µM each time. The TGI was more than 100 µM in the assay with OVCAR-4 ovarian, more than 100 µM with OVCAR-8 ovarian, more than 100 µM in the assay on MDA-MB-435 and 73.4 µM in the assay on SK-MEL-2 melanoma.

Consider `C#C[C@]1(O)CC[C@H]2[C@@H]3CCC4=C/C(=N/OC(=O)c5cccc6c(=O)c7ccccc7[nH]c56)CC[C@@H]4[C@H]3CC[C@@]21C`, for which the TGI in the assay on KM12 colon, in the assay with A549 NSCLC, with SNB-75 CNS, in the assay with U251 CNS, with MDA-N and in the assay on SW-620 colon was more than 100 µM throughout. For the same compound, the TGI with OVCAR-4 ovarian, in the assay with OVCAR-8 ovarian, in the assay with MDA-MB-435 and with SK-MEL-2 melanoma was more than 100 µM in each case.

As to `N#Cc1c(Cl)cc(Cl)n2c1nc1ccccc12`, the TGI in the assay with KM12 colon is 33.1 µM; with A549 NSCLC, 34.7 µM; in the assay on SNB-75 CNS, 32.7 µM; with U251 CNS, 55.5 µM; in the assay with MDA-N, 26.3 µM; with SW-620 colon it was more than 45 µM. The TGI in the assay on OVCAR-4 ovarian was 34 µM; in the assay on OVCAR-8 ovarian it was 35 µM; in the assay with MDA-MB-435, 35.3 µM; in the assay on SK-MEL-2 melanoma, 33.4 µM.

In the case of `Cc1cc(NCc2ccccc2)c2ccccc2[n+]1CCCCCCCCCC[n+]1c(C)cc(NCc2ccccc2)c2ccccc21`, the TGI in the assay on KM12 colon turned out to be 0.796 µM; with A549 NSCLC, 4.39 µM; in the assay on SNB-75 CNS, 1.94 µM; with U251 CNS it was 0.795 µM; in the assay with MDA-N, 1.4 µM; in the assay with SW-620 colon it was 4.31 µM. The TGI is more than 100 µM in the assay on OVCAR-4 ovarian, 6.71 µM with OVCAR-8 ovarian, 1.65 µM in the assay on MDA-MB-435 and 2.08 µM in the assay with SK-MEL-2 melanoma.

Consider `[N-]=[N+]=NC1=C(c2ccccn2)C(=O)c2cccc3cccc1c23`, for which the TGI with KM12 colon, with A549 NSCLC, with SNB-75 CNS, in the assay on U251 CNS, in the assay with MDA-N and in the assay on SW-620 colon was more than 100 µM throughout. For the same compound, the TGI in the assay on OVCAR-4 ovarian, with MDA-MB-435 and in the assay on SK-MEL-2 melanoma was more than 100 µM each time.

Regarding `CCOC(=O)NC(Nc1ccc([N+](=O)[O-])cc1)(C(F)(F)F)C(F)(F)F`, the TGI was more than 100 µM with KM12 colon; more than 100 µM with A549 NSCLC; more than 100 µM in the assay with SNB-75 CNS; more than 100 µM with U251 CNS; 54.7 µM in the assay with MDA-N; more than 100 µM in the assay with SW-620 colon. The TGI in the assay on OVCAR-8 ovarian was more than 100 µM; with MDA-MB-435 it was 49.1 µM; in the assay on SK-MEL-2 melanoma it was more than 100 µM.

Turning to `COc1cccc(/C=N/n2c(C)n[nH]c2=O)c1`, the TGI in the assay with KM12 colon, in the assay on A549 NSCLC, in the assay with SNB-75 CNS, in the assay on U251 CNS, in the assay with MDA-N and in the assay on SW-620 colon was more than 100 µM throughout. Besides, the TGI with OVCAR-4 ovarian, in the assay on OVCAR-8 ovarian, with MDA-MB-435 and with SK-MEL-2 melanoma was more than 100 µM throughout.

As to `Cn1c2ccccc2c(=O)c2cccc(C(=O)NC(CCCN=C(N)N)C(=O)O)c21` (configuration not stated), the TGI in the assay with KM12 colon, with A549 NSCLC, in the assay with SNB-75 CNS, in the assay on U251 CNS, in the assay with MDA-N and with SW-620 colon was more than 100 µM throughout. Moreover, the TGI in the assay on OVCAR-4 ovarian, with OVCAR-8 ovarian, in the assay with MDA-MB-435 and with SK-MEL-2 melanoma was more than 100 µM in each case.

For the compound `CSc1cnc2ccccc2c1SC1CN(Cc2ccccc2)c2ccccc2C1=O` (configuration not stated), the TGI in the assay on KM12 colon, in the assay on A549 NSCLC, in the assay with SNB-75 CNS, in the assay on U251 CNS, with MDA-N and in the assay with SW-620 colon was more than 100 µM in each case. Further, the TGI in the assay with OVCAR-4 ovarian, in the assay on MDA-MB-435 and in the assay with SK-MEL-2 melanoma was more than 100 µM each time.

Regarding `CC1=NNC(=O)C1C(CC(=O)c1c[nH]c2ccccc12)C(=O)O` (configuration not stated), the TGI in the assay with KM12 colon, in the assay on A549 NSCLC, in the assay with SNB-75 CNS, with U251 CNS, with MDA-N and with SW-620 colon was more than 100 µM throughout. Besides, the TGI in the assay on OVCAR-8 ovarian, with MDA-MB-435 and in the assay with SK-MEL-2 melanoma was more than 100 µM throughout.

`C=C(Cl)C(C)(Cl)CCC(Br)C(C)(C)Cl` (configuration not stated): the TGI is 42.9 µM in the assay with KM12 colon; more than 100 µM with A549 NSCLC; 33.5 µM in the assay on SNB-75 CNS; 29.8 µM with U251 CNS; 33 µM in the assay with MDA-N; 30.9 µM in the assay with SW-620 colon. Besides, the TGI was determined as 33.1 µM in the assay on OVCAR-4 ovarian, 39.9 µM with MDA-MB-435 and 37.6 µM with SK-MEL-2 melanoma.

With `CC1=C(CO)C(=O)O[C@@H]([C@@H](CO)[C@H]2CCC3C4C[C@@H](O)[C@@]5(O)CC=CC(=O)[C@]5(C)C4CC[C@@]32C)C1` (some centres not stated), the TGI in the assay on KM12 colon, with A549 NSCLC, with SNB-75 CNS, in the assay on MDA-N, with SW-620 colon and with OVCAR-4 ovarian was more than 100 µM each time. Moreover, the TGI in the assay on OVCAR-8 ovarian, with MDA-MB-435 and with SK-MEL-2 melanoma was more than 100 µM throughout.

Consider `CCOC(=O)NC(Nc1cccc(C(F)(F)F)c1)(C(F)(F)F)C(F)(F)F`, for which the TGI in the assay on KM12 colon, in the assay with A549 NSCLC, with SNB-75 CNS, in the assay on U251 CNS, in the assay with MDA-N and in the assay on SW-620 colon was more than 100 µM each time. Moreover, the TGI with OVCAR-8 ovarian, in the assay on MDA-MB-435 and with SK-MEL-2 melanoma was more than 100 µM throughout.

In the case of `O=c1oc2ccc([N+](=O)[O-])cc2c(Nc2ccc3c(c2)Oc2ccccc2O3)c1[N+](=O)[O-]`, the TGI is more than 100 µM with KM12 colon; more than 100 µM with A549 NSCLC; more than 100 µM in the assay on SNB-75 CNS; 38.7 µM with U251 CNS; more than 100 µM with MDA-N; more than 100 µM in the assay on OVCAR-4 ovarian. Moreover, the TGI in the assay with OVCAR-8 ovarian was more than 100 µM; in the assay with MDA-MB-435, more than 100 µM; in the assay on SK-MEL-2 melanoma, 44.2 µM.
